Measured values reported in BindingDB's records for doi:10.7270/Q25719HD (The Scripps Research Institute Molecular Screening Center, 2010).

Target: T1, Cytochrome b-245 heavy chain (Homo sapiens, UniProt P04839)
T1 sequence (P04839 whole entry): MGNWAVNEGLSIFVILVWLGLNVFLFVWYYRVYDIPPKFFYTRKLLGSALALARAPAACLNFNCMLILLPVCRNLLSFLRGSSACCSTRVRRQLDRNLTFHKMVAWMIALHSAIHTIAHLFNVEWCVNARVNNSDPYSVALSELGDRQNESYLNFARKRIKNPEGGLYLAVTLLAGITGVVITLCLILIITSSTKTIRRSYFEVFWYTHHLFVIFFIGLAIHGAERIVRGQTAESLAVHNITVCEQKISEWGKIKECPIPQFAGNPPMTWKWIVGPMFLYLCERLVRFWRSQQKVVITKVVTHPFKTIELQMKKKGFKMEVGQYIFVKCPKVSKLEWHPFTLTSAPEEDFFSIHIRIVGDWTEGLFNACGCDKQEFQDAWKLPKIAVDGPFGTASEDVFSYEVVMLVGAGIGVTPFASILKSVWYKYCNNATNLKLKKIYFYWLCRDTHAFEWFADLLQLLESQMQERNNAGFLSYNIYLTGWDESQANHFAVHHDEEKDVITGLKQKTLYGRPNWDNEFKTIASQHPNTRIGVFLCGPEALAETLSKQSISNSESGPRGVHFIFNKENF
Assay: PubChem AID 435013

Structure (SMILES)	IC50
CN(C)c1ccc(CN=Nc2c(Cl)cncc2Cl)cc1	> 10 µM
Oc1c(Br)cc(CN=Nc2c(Cl)cncc2Cl)cc1Br [4-[[2-[3,5-bis(chloranyl)pyridin-4-yl]hydrazinyl]methylidene]-2,6-bis(bromanyl)cyclohexa-2,5-dien-1-one]	> 50 µM
